System: catalytic monoclonal antibody 62C7 (anti-13.3), secreted by hybridoma 62C7, ATCC HB11703
Experiment: Antibody-catalyzed dienone-phenol rearrangement of 7 to 8, product formation followed by reverse-phase HPLC
Format: biochemical, Balb/c mice
Experimental: The KLH conjugates of haptens 13.3, 13.4, and 13.5 were then employed to inoculate Balb/c mice and antibodies were generated by standard protocols. (G. Kohler et al. Nature (1975), vol. 265, page 495.) Monoclonal antibodies were purified from ascites fluid by anion exchange chromatography and assayed against substrate 7 for production of the phenol product 8. Fourteen anti-13.3, twenty two anti-13.4, and twenty one anti-13.5 antibodies were assayed for catalysis of the rearrangement reaction converting dienone substrate 7 to phenol product 8. […] Assay condition employed […] in 100 mM NaCl, 50 mM of either bistris(bis(hydroxyethyl)-tris(hydroxymethyl)aminomethane) or 1,3-bis[tris (hydroxymethyl)aminopropane at 37° C. Product formation was followed by reverse-phase HPLC (Vydac C-18 218TP54 column (0.45×22 cm) at a flow rate of 1.5 milliliters/minute using 28% CH3 CN and 72% H2 O+0.1% CF3 COOH. Retention time tR for substrate 7 was 5.02 minutes. Retention time tR for product 8 was 7.14 minutes. The pD (98%) D2 O) values were obtained by adding 0.4 to the pH-electrode reading. […] Antibody 62C7 (anti-13.3) was characterized in detail.
FIG. 3 illustrates the pH-profile of the rearrangement reaction in the presence of catalytic antibody 62C7 (anti-13.3) and without. Background rates are determined in H2 O and in D2 O. The lines are caluclated from the following equations respectively:
kcat =kcat °+kcatH -[H3 O^30 ]^0.92 ;
kH2O =k°+kH +[H3 O^30 ]; kD2O
Accordingly, FIG. 3 illustrates both the antibody 62C7 catalyzed and the background reactions proceed via a hydronium ion catalyzed pathway, viz. kcatH+ =0.176/Mole second, H+ =1.51×10^-3 /Mole second. […] This is consistent with pre-equilibrium protonation of substrate 7 to form a first intermediate 10. This reaction probably reflects the spontaneous rearrangement of substrate 7 to the conjugate base of a second intermediate 12. This rearrangement reaction probably also occurs when substrate 7 is complexed with anti-13.3, i.e., second intermediate 12 is formed within the antibody complex. Importantly, a small inverse secondary isotope effect is observed in all cases at position C(3) of the dienone, viz., kcatH /kCatD =0.88 at pH=5.75, kH /kD =0.88-0.94 from pH=2.95 to 9.54. […] Accordingly, the rate determining step is the […]. (V. Vitullo et al., J. Am. Chem. Soc. (1974), vol. 94, page 3844.) Although this carbon hydrogen bond is ultimately broken to yield the product phenol 8, it is not involved in the rate determining step as this would have given rise to a large, normal isotope effect at that position.

[1] = pH 5.75, 37° C., 100 mM NaCl, 50 mM buffer

Row | SMILES | kcatH+ (hydronium ion catalyzed pathway of the antibody reaction) (from pH-profile, FIG. 3) | Km (in D2O, pD 7.07, 37° C.) | kcat (in D2O, pD 7.07, 37° C.) | kcat / kuncat (in D2O, pD 7.07, 37° C.) | kcat (pH 5.75, 37° C.) | kcat / kuncat (pH 5.75, 37° C.) | Km [1] | Km (pH 7.07, 37° C., H2O) | kcat (pH 7.07, 37° C., H2O) | kcat / kuncat (pH 7.07, 37° C., H2O) | kcatH /kCatD (secondary isotope effect at position C(3) of the dienone) (pH=5.75, 7 versus 7-d2)
1 | COC1(Cc2ccc(C(=O)NCCO)cc2)C=C(C)C(=O)C(C)=C1 [Compound 7] | 0.176 mol⁻¹ s⁻¹ | 1300 µM | 1.25e-06 s⁻¹ | 95 | 1.22e-06 s⁻¹ | 80 | 670 µM | 1200 µM | 1.25e-06 s⁻¹ | 90 | 0.88
2 | [2H]C1=C(C)C(=O)C(C)=C([2H])C1(Cc1ccc(C(=O)NCCO)cc1)OC [Compound 7-d2] | – | – | – | – | 1.37e-06 s⁻¹ | 80 | 770 µM | – | – | – | –

Source: patent US5500358A, “Antibody catalysis of cyclohexadienone rearrangments” (The Scripps Research Institute, priority 1994, dated 1996)
